According to patent US20020051978A1, “Methods and compositions for the identification, assessment, prevention and therapy of human cancers” (priority 2000, published 2002):
Like-named read-outs stand apart in the source and are kept apart here.

Experiments:
[1] = system: 60 cancer cell lines (NCI 60 cancer cell line series); assay: NCI-DTP in vitro cancer screen, sulforhodamine B (SRB) growth inhibition, 48 hour exposure; assay type: cell-based, human; set-up: key to sensitivity class Ovarian OVCAR-8 CL6005 / sensitivity class Ovarian SK-OV-3 CL6011 / sensitivity class Prostate DU-145 CL11003 / sensitivity class NSCLC NCI-H522 CL1003 / sensitivity class Ovarian IGROV1 CL6010 / sensitivity class Ovarian OVCAR-4 CL6002 / sensitivity class Prostate PC-3(I) CL11001 / sensitivity class Renal A498 CL9013 / sensitivity class Renal SN12C CL9008: sensitivity class: 1 = Low, 2 = Medium, 3 = High
Method in brief: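 Values come from the NCI-DTP screen database: -log GI50, the concentration giving 50% growth inhibition, derived from SRB cell-mass dose-response curves. Each line seeded at its own density, treated day 1 at five ten-fold-spaced doses in duplicate wells, stained after 48 h.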

[2] = system: 60 cancer cell lines (NCI 60 cancer cell line series); conditions: cited from earlier work

COc1cccc2c1C(=O)c1c(O)c3c(c(O)c1C2=O)C[C@@](O)(C(=O)CO)C[C@@H]3O[C@H]1C[C@H](N)[C@H](O)[C@H](C)O1 [Adriamycin]
1: classification of cell line as Low(1), Medium(2) or High(3) sensitivity to compound ([1]; Colon HCT-15 CL4015) | sensitivity class NSCLC NCI-H332M CL1017 ([1]; cell line NSCLC NCI-H332M, CL1017) | sensitivity class Ovarian OVCAR-4 CL6002 ([1]; cell line Ovarian OVCAR-4, CL6002) | sensitivity class Ovarian OVCAR-5 CL6003 ([1]; cell line Ovarian OVCAR-5, CL6003) | sensitivity class Renal UO-31 CL9004 ([1]; cell line Renal UO-31, CL9004)
7.3: -Log (GI50) ([2]; CNS SNB-19 (CL12002)) | -Log (GI50) ([2]; CNS U251(I) CL12009) | -Log (GI50) ([2]; Leukemia HL-60(I) (CL7008)) | -Log (GI50) ([2]; Leukemia RPMI-8226(I) (CL7010)) | -Log (GI50) ([2]; Melanoma LOX IMVI CL10001) | -Log (GI50) ([2]; Renal 786-O CL9018)
6.2: -Log (GI50) ([2]; Ovarian OVCAR-5 CL6003)
7.1: -Log (GI50) ([2]; Colon HCT-116 (CL4003)) | -Log (GI50) ([2]; Colon SW-620 (CL4009)) | -Log (GI50) ([2]; Melanoma MALME-3M CL10002)
6.9: -Log (GI50) ([2]; NSCLC NCI-H23(I) CL1001) | -Log (GI50) ([2]; Ovarian IGROV1 CL6010) | -Log (GI50) ([2]; Renal A498 CL9013)
6.1: -Log (GI50) ([2]; Ovarian OVCAR-4 CL6002) | -Log (GI50) ([2]; Renal UO-31 CL9004)
7.0: -Log (GI50) ([2]; Breast T-47D (CL5014)) | -Log (GI50) ([2]; CNS SF-268 CL12014) | -Log (GI50) ([2]; CNS SF-295 CL12015) | -Log (GI50) ([2]; CNS SNB-75(I) CL12005) | -Log (GI50) ([2]; Leukemia K562(I) CL7005) | -Log (GI50) ([2]; Renal SN12C CL9008)
6.6: -Log (GI50) ([2]; Melanoma M14 (CL10014)) | -Log (GI50) ([2]; Prostate PC-3(I) CL11001)
6.3: -Log (GI50) ([2]; NSCLC NCI-H332M CL1017) | -Log (GI50) ([2]; Ovarian OVCAR-3 CL6001) | -Log (GI50) ([2]; Renal TK10 CL9024)
8.0: -Log (GI50) ([2]; Leukemia MOLT-4 (CL7006))
4.8: -Log (GI50) ([2]; Breast MCF7/ADRr (CL5002))
2: classification of cell line as Low(1), Medium(2) or High(3) sensitivity to compound ([1]; CNS SF-539 CL12016) | classification of cell line as Low(1), Medium(2) or High(3) sensitivity to compound ([1]; CNS SNB-19 (CL12002)) | classification of cell line as Low(1), Medium(2) or High(3) sensitivity to compound ([1]; CNS SNB-75(I) CL12005) | classification of cell line as Low(1), Medium(2) or High(3) sensitivity to compound ([1]; CNS U251(I) CL12009) | classification of cell line as Low(1), Medium(2) or High(3) sensitivity to compound ([1]; Colon COLO-250 CL4010) | classification of cell line as Low(1), Medium(2) or High(3) sensitivity to compound ([1]; Colon HCC-2998 (CL4002)) | classification of cell line as Low(1), Medium(2) or High(3) sensitivity to compound ([1]; Colon HCT-116 (CL4003)) | classification of cell line as Low(1), Medium(2) or High(3) sensitivity to compound ([1]; Colon HT29(I) CL4001) | classification of cell line as Low(1), Medium(2) or High(3) sensitivity to compound ([1]; Colon KM12 (CL4017)) | classification of cell line as Low(1), Medium(2) or High(3) sensitivity to compound ([1]; Colon SW-620 (CL4009)) | classification of cell line as Low(1), Medium(2) or High(3) sensitivity to compound ([1]; Leukemia HL-60(I) (CL7008)) | classification of cell line as Low(1), Medium(2) or High(3) sensitivity to compound ([1]; Leukemia K562(I) CL7005) | classification of cell line as Low(1), Medium(2) or High(3) sensitivity to compound ([1]; Leukemia RPMI-8226(I) (CL7010)) | classification of cell line as Low(1), Medium(2) or High(3) sensitivity to compound ([1]; Melanoma LOX IMVI CL10001) | classification of cell line as Low(1), Medium(2) or High(3) sensitivity to compound ([1]; Melanoma M14 (CL10014)) | classification of cell line as Low(1), Medium(2) or High(3) sensitivity to compound ([1]; Melanoma MALME-3M CL10002) | sensitivity class NSCLC NCI-H23(I) CL1001 ([1]; cell line NSCLC NCI-H23(I), CL1001) | sensitivity class NSCLC NCI-H522 CL1003 ([1]; cell line NSCLC NCI-H522, CL1003) | sensitivity class Ovarian IGROV1 CL6010 ([1]; cell line Ovarian IGROV1, CL6010) | sensitivity class Ovarian OVCAR-3 CL6001 ([1]; cell line Ovarian OVCAR-3, CL6001) | sensitivity class Ovarian OVCAR-8 CL6005 ([1]; cell line Ovarian OVCAR-8, CL6005) | sensitivity class Ovarian SK-OV-3 CL6011 ([1]; cell line Ovarian SK-OV-3, CL6011) | sensitivity class Prostate DU-145 CL11003 ([1]; cell line Prostate DU-145, CL11003) | sensitivity class Prostate PC-3(I) CL11001 ([1]; cell line Prostate PC-3(I), CL11001) | sensitivity class Renal 786-O CL9018 ([1]; cell line Renal 786-O, CL9018) | sensitivity class Renal A498 CL9013 ([1]; cell line Renal A498, CL9013) | sensitivity class Renal ACHN CL9023 ([1]; cell line Renal ACHN, CL9023) | sensitivity class Renal CAKI-1 CL9015 ([1]; cell line Renal CAKI-1, CL9015) | sensitivity class Renal RXF-393 CL9016 ([1]; cell line Renal RXF-393, CL9016) | sensitivity class Renal SN12C CL9008 ([1]; cell line Renal SN12C, CL9008) | sensitivity class Renal TK10 CL9024 ([1]; cell line Renal TK10, CL9024)
7.5: -Log (GI50) ([2]; Leukemia CCRF-CEM(I) (CL7003))
7.2: -Log (GI50) ([2]; CNS SF-539 CL12016) | -Log (GI50) ([2]; NCSLC NCI-H522 CL1003) | -Log (GI50) ([2]; Renal ACHN CL9023)
6.4: -Log (GI50) ([2]; Breast MDA-MB-231 CL5005)
5.9: -Log (GI50) ([2]; Colon HCT-15 CL4015)
6.5: -Log (GI50) ([2]; Breast BT-549 (CL5013)) | -Log (GI50) ([2]; Breast MDA-MB-435 (CL5011)) | -Log (GI50) ([2]; Breast MDA-N CL5012) | -Log (GI50) ([2]; Colon KM12 (CL4017)) | -Log (GI50) ([2]; Ovarian SK-OV-3 CL6011)
6.7: -Log (GI50) ([2]; Breast HS-578T CL5006) | -Log (GI50) ([2]; Colon COLO-250 CL4010) | -Log (GI50) ([2]; Colon HCC-2998 (CL4002)) | -Log (GI50) ([2]; Colon HT29(I) CL4001) | -Log (GI50) ([2]; Renal RXF-393 CL9016)
6.8: -Log (GI50) ([2]; Ovarian OVCAR-8 CL6005) | -Log (GI50) ([2]; Prostate DU-145 CL11003) | -Log (GI50) ([2]; Renal CAKI-1 CL9015)
7.8: -Log (GI50) ([2]; Breast MCF7(I) (CL5001)) | -Log (GI50) ([2]; Leukemia SR CL7019)
8.2: -Log (GI50) ([2]; NSCLC NCI-H460 CL1021)
3: classification of cell line as Low(1), Medium(2) or High(3) sensitivity to compound ([1]; Leukemia CCRF-CEM(I) (CL7003)) | classification of cell line as Low(1), Medium(2) or High(3) sensitivity to compound ([1]; Leukemia MOLT-4 (CL7006)) | classification of cell line as Low(1), Medium(2) or High(3) sensitivity to compound ([1]; Leukemia SR CL7019) | sensitivity class NSCLC NCI-H460 CL1021 ([1]; cell line NSCLC NCI-H460, CL1021)
